Measurements: patent US6191115A, “C-terminus modified heptapeptide LHRH analogs” (Abbott Laboratories, priority 1999, dated 2001)
Starred links: 1 amine or outer side, 2 acyl side, 3 side chain; linkers in the order of their positions; H or OH if unused. Non-standard residues stand in square brackets, D forms with d. Residues, ends and D or L forms follow the SMILES beside them. *: point of attachment. NH(2-pyrrolidin-1-ylethyl) = C1CCN(CCN*)C1; NHCH2CH2(piperidin-1-yl) = C1CCN(CCN*)CC1; dPhe(4-Cl) = N[C@H](Cc1ccc(Cl)cc1)C(=O)O; NH(2-(2-pyridyl)ethyl) = c1ccc(CCN*)nc1; d2Nal = N[C@H](Cc1ccc2ccccc2c1)C(=O)O; NMeY = CN[C@@H](Cc1ccc(O)cc1)C(=O)O; Ethylenediamine = C(CN[*:2])N[*:1]; d3Pal = N[C@H](Cc1cccnc1)C(=O)O; Nicotinoyl = O=C(c1cccnc1)*; Agmatine = N=C(N)NCCCCN*; NH(CH2)6NH2 = NCCCCCCN*; X9 = CC(C)NCCCCCCCCCCN*; X6 = N=C(N)NCCCCCCCCN*; X10 = N=C(N)NCCCCCCN*; X5 = C1CN2CCC1C(N*)C2; NH(CH2)4OH = OCCCCN*; X12 = N=C(N)NCCCCCN*; X1 = CC1CCCCN1CCCN*; X3 = O=C1CCCN1CCCN*; X8 = Cn1cccc1CCN*; NEt2 = CCN(CC)*

Biological target: T1, LH release from rat pituitary cells (Rattus norvegicus, UniProt P30969)
T1 sequence (P30969 1-327): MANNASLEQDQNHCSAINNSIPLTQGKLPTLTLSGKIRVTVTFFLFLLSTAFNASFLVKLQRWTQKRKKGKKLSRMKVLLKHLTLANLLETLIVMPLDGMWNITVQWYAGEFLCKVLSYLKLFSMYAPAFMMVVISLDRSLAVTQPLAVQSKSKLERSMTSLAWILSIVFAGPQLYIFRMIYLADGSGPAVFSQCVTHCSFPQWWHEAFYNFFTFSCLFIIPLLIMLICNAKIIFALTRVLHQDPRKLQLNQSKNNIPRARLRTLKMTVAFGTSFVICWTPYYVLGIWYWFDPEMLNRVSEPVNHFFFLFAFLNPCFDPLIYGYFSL
Assay: in vitro inhibition of LH release from rat pituitary cells (pA2)
Assay type: cell-based
Details: pA2 = negative logarithm of antagonist concentration required to shift the response curve of the agonist leuprolide to two-fold higher concentration
Experimental: Representative compounds of the present invention were evaluated in vitro for inhibition of LH release from rat pituitary cells (pA2). Methods for the assay procedures arc described by F. Haviv, et al. J. Med. Chem., 32:2340-2344 (1989). Values of pA2 are the negative logarithms of the concentration of the particular antagonist test compound required to shift the response curve produced by the agonist leuprolide to two-fold higher concentration. Typically values of 7.0 or greater are indicative of good LHRH antagonist potency, with values of 8.0 or greater being preferred. Leuprolide LHRH agonist, disclosed and claimed in U.S. Pat. No. 4,005,063, has the structure 5-oxo-Pro^1 -His^2 -Trp^3 -Ser^4 -Tyr^5 -D-Leu^6 -Leu^7 -Arg^8 -Pro^9 -NHEt.

| SMILES | LHRH antagonist potency (pA2) |
| --- | --- |
| CC(=O)N[C@H](Cc1ccc2ccccc2c1)C(=O)N[C@H](Cc1ccc(Cl)cc1)C(=O)N[C@H](Cc1cccnc1)C(=O)N[C@@H](CO)C(=O)N(C)[C@@H](Cc1ccc(O)cc1)C(=O)N[C@H](CCCCNC(=O)c1cccnc1)C(=O)N[C@@H](CC(C)C)C(=O)NCCN1CCCCC1 [Example 26, NAcD2Nal-D4ClPhe-D3Pal-Ser-NMeTyr-DLys(Nic)-Leu-NH--CH2 --CH2 -(1-piperidine)] (Ac-[d2Nal][dPhe(4-Cl)][d3Pal]S[NMeY][dK](Nicotinoyl)L-{NHCH2CH2(piperidin-1-yl)}) | 9.30 |
| CC(=O)N[C@H](Cc1ccc2ccccc2c1)C(=O)N[C@H](Cc1ccc(Cl)cc1)C(=O)N[C@H](Cc1cccnc1)C(=O)N[C@@H](CO)C(=O)N(C)[C@@H](Cc1ccc(O)cc1)C(=O)N[C@H](CCCCNC(=O)c1cccnc1)C(=O)N[C@@H](CC(C)C)C(=O)NCCCCCNC(=N)N [Example 14, NAcD2Nal-D4ClPhe-D3Pal-Ser-NMeTyr-DLys(Nic)-Leu-NH--(CH2)5 NH(C=NH)NH2] (Ac-[d2Nal][dPhe(4-Cl)][d3Pal]S[NMeY][dK](Nicotinoyl)L-X12) | 9.81 |
| CC(=O)N[C@H](Cc1ccc2ccccc2c1)C(=O)N[C@H](Cc1ccc(Cl)cc1)C(=O)N[C@H](Cc1cccnc1)C(=O)N[C@@H](CO)C(=O)N(C)[C@@H](Cc1ccc(O)cc1)C(=O)N[C@H](CCCCNC(=O)c1cccnc1)C(=O)N[C@@H](CC(C)C)C(=O)NCCc1ccccn1 [Example 28, NAcD2Nal-D4ClPhe-D3Pal-Ser-NMeTyr-DLys(Nic)-Leu-NH--CH2 --CH2 -(2-pyridine)] (Ac-[d2Nal][dPhe(4-Cl)][d3Pal]S[NMeY][dK](Nicotinoyl)L-{NH(2-(2-pyridyl)ethyl)}) | 8.10 |
| CC(=O)N[C@H](Cc1ccc2ccccc2c1)C(=O)N[C@H](Cc1ccc(Cl)cc1)C(=O)N[C@H](Cc1cccnc1)C(=O)N[C@@H](CO)C(=O)N(C)[C@@H](Cc1ccc(O)cc1)C(=O)N[C@H](CCCCNC(=O)c1cccnc1)C(=O)N[C@@H](CC(C)C)C(=O)NCCCCCCN [Example 5, NAcD2Nal-D4ClPhe-D3Pal-Ser-NMeTyr-DLys(Nic)-Leu-NH--(CH2)6 NH2] (Ac-[d2Nal][dPhe(4-Cl)][d3Pal]S[NMeY][dK](Nicotinoyl)L-{NH(CH2)6NH2}) | 9.91 |
| CC(=O)N[C@H](Cc1ccc2ccccc2c1)C(=O)N[C@H](Cc1ccc(Cl)cc1)C(=O)N[C@H](Cc1cccnc1)C(=O)N[C@@H](CO)C(=O)N(C)[C@@H](Cc1ccc(O)cc1)C(=O)N[C@H](CCCCNC(=O)c1cccnc1)C(=O)N[C@@H](CC(C)C)C(=O)NCCCCCCCCCCNC(C)C [Example 21, NAcD2Nal-D4ClPhe-D3Pal-Ser-NMeTyr-DLys(Nic)-Leu-NH--(CH2)10 NH-isopropyl] (Ac-[d2Nal][dPhe(4-Cl)][d3Pal]S[NMeY][dK](Nicotinoyl)L-X9) | 8.42 |
| CC(=O)N[C@H](Cc1ccc2ccccc2c1)C(=O)N[C@H](Cc1ccc(Cl)cc1)C(=O)N[C@H](Cc1cccnc1)C(=O)N[C@@H](CO)C(=O)N(C)[C@@H](Cc1ccc(O)cc1)C(=O)N[C@H](CCCCNC(=O)c1cccnc1)C(=O)N[C@@H](CC(C)C)C(=O)NCCCCCCNC(=N)N [Example 11, NAcD2Nal-D4ClPhe-D3Pal-Ser-NMeTyr-DLys(Nic)-Leu-NH--(CH2)6 NH(C=NH)NH2] (Ac-[d2Nal][dPhe(4-Cl)][d3Pal]S[NMeY][dK](Nicotinoyl)L-X10) | 9.10 |
| CCN(CC)C(=O)[C@H](CC(C)C)NC(=O)[C@@H](CCCCNC(=O)c1cccnc1)NC(=O)[C@H](Cc1ccc(O)cc1)N(C)C(=O)[C@H](CO)NC(=O)[C@@H](Cc1cccnc1)NC(=O)[C@@H](Cc1ccc(Cl)cc1)NC(=O)[C@@H](Cc1ccc2ccccc2c1)NC(C)=O [Example 4, NAcD2Nal-D4ClPhe-D3Pal-Ser-NMeTyr-DLys(Nic)-Leu-N(CH2 CH3)2] (Ac-[d2Nal][dPhe(4-Cl)][d3Pal]S[NMeY][dK](Nicotinoyl)L-NEt2) | 7.96 |
| CC(=O)N[C@H](Cc1ccc2ccccc2c1)C(=O)N[C@H](Cc1ccc(Cl)cc1)C(=O)N[C@H](Cc1cccnc1)C(=O)N[C@@H](CO)C(=O)N(C)[C@@H](Cc1ccc(O)cc1)C(=O)N[C@H](CCCCNC(=O)c1cccnc1)C(=O)N[C@@H](CC(C)C)C(=O)NCCCN1CCCC1=O [Example 33, NAcD2Nal-D4ClPhe-D3Pal-Ser-NMeTyr-DLys(Nic)-Leu-NH--CH2 CH2 CH2 -(1-pyrrolidin-2-one)] (Ac-[d2Nal][dPhe(4-Cl)][d3Pal]S[NMeY][dK](Nicotinoyl)L-X3) | 8.30 |
| CC(=O)N[C@H](Cc1ccc2ccccc2c1)C(=O)N[C@H](Cc1ccc(Cl)cc1)C(=O)N[C@H](Cc1cccnc1)C(=O)N[C@@H](CO)C(=O)N(C)[C@@H](Cc1ccc(O)cc1)C(=O)N[C@H](CCCCNC(=O)c1cccnc1)C(=O)N[C@@H](CC(C)C)C(=O)NCCCCCCCCNC(=N)N [Example 20, NAcD2Nal-D4ClPhe-D3Pal-Ser-NMeTyr-DLys(Nic)-Leu-NH--(CH2)8 NH(C=NH)NH2] (Ac-[d2Nal][dPhe(4-Cl)][d3Pal]S[NMeY][dK](Nicotinoyl)L-X6) | 8.39 |
| CC(=O)N[C@H](Cc1ccc2ccccc2c1)C(=O)N[C@H](Cc1ccc(Cl)cc1)C(=O)N[C@H](Cc1cccnc1)C(=O)N[C@@H](CO)C(=O)N(C)[C@@H](Cc1ccc(O)cc1)C(=O)N[C@H](CCCCNC(=O)c1cccnc1)C(=O)N[C@@H](CC(C)C)C(=O)NC1CN2CCC1CC2 (stereo partly drawn) [Example 25, NAcD2Nal-D4ClPhe-D3Pal-Ser-NMeTyr-Dlys(Nic)-Leu-NH--(3-guinuclidine)] (Ac-[d2Nal][dPhe(4-Cl)][d3Pal]S[NMeY][dK](Nicotinoyl)L-X5) | 10.02 |
| CC(=O)N[C@H](Cc1ccc2ccccc2c1)C(=O)N[C@H](Cc1ccc(Cl)cc1)C(=O)N[C@H](Cc1cccnc1)C(=O)N[C@@H](CO)C(=O)N(C)[C@@H](Cc1ccc(O)cc1)C(=O)N[C@H](CCCCNC(=O)c1cccnc1)C(=O)N[C@@H](CC(C)C)C(=O)NCCCCNC(=N)N [Example 22, NAcD2Nal-D4ClPhe-D3Pal-Ser-NMeTyr-DLys(Nic)-Leu-NH--(CH2)4 NH(C=NH)NH2] (Ac-[d2Nal][dPhe(4-Cl)][d3Pal]S[NMeY][dK](Nicotinoyl)L-Agmatine) | 10.26 |
| CC(=O)N[C@H](Cc1ccc2ccccc2c1)C(=O)N[C@H](Cc1ccc(Cl)cc1)C(=O)N[C@H](Cc1cccnc1)C(=O)N[C@@H](CO)C(=O)N(C)[C@@H](Cc1ccc(O)cc1)C(=O)N[C@H](CCCCNC(=O)c1cccnc1)C(=O)N[C@@H](CC(C)C)C(=O)NCCc1cccn1C [Example 29, NAcD2Nal-D4ClPhe-D3Pal-Ser-NMeTyr-DLys(Nic)-Leu-NH--CH2 --CH2 -[2-(1-methyl)pyrrole]] (Ac-[d2Nal][dPhe(4-Cl)][d3Pal]S[NMeY][dK](Nicotinoyl)L-X8) | 8.30 |
| CC(=O)N[C@H](Cc1ccc2ccccc2c1)C(=O)N[C@H](Cc1ccc(Cl)cc1)C(=O)N[C@H](Cc1cccnc1)C(=O)N[C@@H](CO)C(=O)N(C)[C@@H](Cc1ccc(O)cc1)C(=O)N[C@H](CCCCNC(=O)c1cccnc1)C(=O)N[C@@H](CC(C)C)C(=O)NCCCN1CCCCC1C (stereo partly drawn) [Example 32, NAcD2Nal-D4ClPhe-D3Pal-Ser-NMeTyr-DLys(Nic)-Leu-NH--CH2 CH2 CH2 -[1-(2-methyl)piperidine]] (Ac-[d2Nal][dPhe(4-Cl)][d3Pal]S[NMeY][dK](Nicotinoyl)L-X1) | 9.07 |
| CC(=O)N[C@H](Cc1ccc2ccccc2c1)C(=O)N[C@H](Cc1ccc(Cl)cc1)C(=O)N[C@H](Cc1cccnc1)C(=O)N[C@@H](CO)C(=O)N(C)[C@@H](Cc1ccc(O)cc1)C(=O)N[C@H](CCCCNC(=O)c1cccnc1)C(=O)N[C@@H](CC(C)C)C(=O)NCCN [Example 2, NAcD2Nal-D4ClPhe-D3Pal-Ser-NMeTyr-DLys(Nic)-Leu-NH--(CH2)2 NH2] (Ac-[d2Nal][dPhe(4-Cl)][d3Pal]S[NMeY][dK](Nicotinoyl)L-Ethylenediamine) | 9.58 |
| CC(=O)N[C@H](Cc1ccc2ccccc2c1)C(=O)N[C@H](Cc1ccc(Cl)cc1)C(=O)N[C@H](Cc1cccnc1)C(=O)N[C@@H](CO)C(=O)N(C)[C@@H](Cc1ccc(O)cc1)C(=O)N[C@H](CCCCNC(=O)c1cccnc1)C(=O)N[C@@H](CC(C)C)C(=O)NCCCCO [Example 34, NAcD2Nal-D4ClPhe-D3Pal-Ser-NMeTyr-DLys(Nic)-Leu-NH--CH2 CH2 CH2 CH2 OH] (Ac-[d2Nal][dPhe(4-Cl)][d3Pal]S[NMeY][dK](Nicotinoyl)L-{NH(CH2)4OH}) | 8.71 |
| CC(=O)N[C@H](Cc1ccc2ccccc2c1)C(=O)N[C@H](Cc1ccc(Cl)cc1)C(=O)N[C@H](Cc1cccnc1)C(=O)N[C@@H](CO)C(=O)N(C)[C@@H](Cc1ccc(O)cc1)C(=O)N[C@H](CCCCNC(=O)c1cccnc1)C(=O)N[C@@H](CC(C)C)C(=O)NCCN1CCCC1 [Example 3, NAcD2Nal-D4ClPhe-D3Pal-Ser-NMeTyr-DLys(Nic)-Leu-NH--(CH2)2 -(1-pyrrolidine)] (Ac-[d2Nal][dPhe(4-Cl)][d3Pal]S[NMeY][dK](Nicotinoyl)L-{NH(2-pyrrolidin-1-ylethyl)}) | 11.27 |
